From the supplement of paper PMC10307832

Each cell line was assayed with CC(C)C[C@H](NC(=O)[C@H](CCc1ccccc1)NC(=O)CN1CCOCC1)C(=O)N[C@@H](Cc1ccccc1)C(=O)N[C@@H](CC(C)C)C(=O)[C@@]1(C)CO1 [Carfilzomib] + CS(=O)(=O)CCNCc1ccc(-c2ccc3ncnc(Nc4ccc(OCc5cccc(F)c5)c(Cl)c4)c3c2)o1 [Lapatinib] (partner 2 µM) (assay: relative viability (nuclei count vs DMSO), 5 days (fraction); higher = more cells survive). Settings: first compound 0.001 µM.
Method in brief: (§1)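 Dosing by pin tool came one day after lung cancer cell lines were seeded in 1536-well plates, using either one drug or a fixed anchor-drug dose plus five library-drug doses (not always all listed) in √10 steps. After 5 days, nuclei were counted on 4× images. Relative viability is treated-well nuclei count divided by vehicle-well nuclei count, and values are medians of duplicate plates.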
NCI-H1563 was tested, and the relative viability was 0.926. NCI-H1651 gave a relative viability of 0.696. NCI-H1666 was tested, and the relative viability was 0.611. With NCI-H1734 the relative viability was 1.03. NCI-H1755 was tested, and the relative viability was 1.05. In the case of NCI-H1792, the relative viability is reported as 0.794. NCI-H1915 showed a relative viability of 0.937. For NCI-H1975, the relative viability was 0.76. Cell Line NCI-H1993 has a relative viability of 0.729. NCI-H2009 was tested, and the relative viability was 1.02. With NCI-H2023 the relative viability was 0.734. Cell Line NCI-H2085 has a relative viability of 0.663. In the case of NCI-H2087, the relative viability is reported as 0.823. Work on NCI-H2126 yielded a relative viability of 0.75. NCI-H2228 gave a relative viability of 1.28. With NCI-H2347 the relative viability was 0.976. For NCI-H3122, the relative viability was 1.03.

Same assay, conditions: first compound 0.003162 µM
Work on LU99A yielded a relative viability of 1.03. LXF-289 gave a relative viability of 0.942. For NCI-H23, the relative viability was 1.09. NCI-H322M was tested, and the relative viability was 0.641. For NCI-H460, the relative viability was 1.18. NCI-H520 gave a relative viability of 1.1. Cell Line NCI-H596 has a relative viability of 1.03. Work on NCI-H647 yielded a relative viability of 1.17. Cell Line NCI-H650 has a relative viability of 1.33. NCI-H661 showed a relative viability of 0.836. NCI-H727 was tested, and the relative viability was 0.855. For NCI-H838, the relative viability was 1.33. NCI-H1355 showed a relative viability of 1.08. For NCI-H1437, the relative viability was 0.931. NCI-H1563 gave a relative viability of 1.1. NCI-H1650 was tested, and the relative viability was 0.781. Work on NCI-H1651 yielded a relative viability of 0.742. NCI-H1666 gave a relative viability of 0.755. Work on NCI-H1734 yielded a relative viability of 1.11. Work on NCI-H1755 yielded a relative viability of 1.12. NCI-H1792 gave a relative viability of 0.896. NCI-H1915 gave a relative viability of 1.02. In the case of NCI-H1975, the relative viability is reported as 0.911. Cell Line NCI-H1993 has a relative viability of 0.89. In the case of NCI-H2009, the relative viability is reported as 1.37. With NCI-H2023 the relative viability was 0.979. In the case of NCI-H2085, the relative viability is reported as 0.843. Work on NCI-H2087 yielded a relative viability of 1.35. NCI-H2126 gave a relative viability of 0.798. In the case of NCI-H2228, the relative viability is reported as 1.23. NCI-H2347 gave a relative viability of 1.09. NCI-H2405 gave a relative viability of 1.42. NCI-H3122 gave a relative viability of 0.942.

Same assay, conditions: first compound 0.01 µM
In the case of LU99A, the relative viability is reported as 0.972. With LXF-289 the relative viability was 0.917. NCI-H23 was tested, and the relative viability was 0.723. NCI-H322M showed a relative viability of 0.611. Work on NCI-H460 yielded a relative viability of 0.955. Cell Line NCI-H520 has a relative viability of 0.622. For NCI-H596, the relative viability was 1.01. Cell Line NCI-H647 has a relative viability of 0.428. NCI-H650 gave a relative viability of 1.04. With NCI-H661 the relative viability was 0.533. In the case of NCI-H727, the relative viability is reported as 0.61. NCI-H838 showed a relative viability of 1.05. NCI-H1355 gave a relative viability of 1.08. NCI-H1437 was tested, and the relative viability was 0.832. In the case of NCI-H1563, the relative viability is reported as 0.927. With NCI-H1650 the relative viability was 0.264. With NCI-H1651 the relative viability was 0.16. Work on NCI-H1666 yielded a relative viability of 0.747. For NCI-H1734, the relative viability was 1.02. NCI-H1755 was tested, and the relative viability was 1.02. Cell Line NCI-H1792 has a relative viability of 0.939. With NCI-H1915 the relative viability was 0.973. Cell Line NCI-H1975 has a relative viability of 0.389. In the case of NCI-H1993, the relative viability is reported as 0.704. With NCI-H2009 the relative viability was 0.828. For NCI-H2023, the relative viability was 0.925. Cell Line NCI-H2085 has a relative viability of 0.714. With NCI-H2087 the relative viability was 0.829. With NCI-H2126 the relative viability was 0.784. Work on NCI-H2228 yielded a relative viability of 0.752. NCI-H2347 gave a relative viability of 0.979. NCI-H2405 was tested, and the relative viability was 1.05. NCI-H3122 showed a relative viability of 1.09.

Same assay, conditions: first compound 0.03162 µM
LU99A gave a relative viability of 0.521. LXF-289 gave a relative viability of 0.0958. In the case of NCI-H23, the relative viability is reported as 0.171. For NCI-H322M, the relative viability was 0.651. Work on NCI-H460 yielded a relative viability of 0.0195. For NCI-H520, the relative viability was 0.148. NCI-H596 was tested, and the relative viability was 0.805. For NCI-H647, the relative viability was 0.0287. Work on NCI-H650 yielded a relative viability of 0.361. NCI-H661 showed a relative viability of 0.507. With NCI-H727 the relative viability was 0.398. NCI-H838 gave a relative viability of 0.2. NCI-H1355 showed a relative viability of 0.941. NCI-H1437 showed a relative viability of 0.431. Cell Line NCI-H1563 has a relative viability of 0.771. NCI-H1650 gave a relative viability of 0.165. NCI-H1651 gave a relative viability of 0.113. For NCI-H1666, the relative viability was 0.407. NCI-H1734 showed a relative viability of 0.317. In the case of NCI-H1755, the relative viability is reported as 0.922. Work on NCI-H1792 yielded a relative viability of 0.985. NCI-H1915 was tested, and the relative viability was 0.586. NCI-H1975 was tested, and the relative viability was 0.116. In the case of NCI-H1993, the relative viability is reported as 0.632. NCI-H2009 gave a relative viability of 0.0609. With NCI-H2023 the relative viability was 0.302. In the case of NCI-H2085, the relative viability is reported as 0.444. For NCI-H2087, the relative viability was 0.112. Work on NCI-H2126 yielded a relative viability of 0.765. NCI-H2228 showed a relative viability of 0.104. For NCI-H2347, the relative viability was 0.306. Cell Line NCI-H2405 has a relative viability of 0.645. With NCI-H3122 the relative viability was 0.978.

Same assay, conditions: first compound 0.1 µM
Cell Line LU99A has a relative viability of 0.2. With LXF-289 the relative viability was 0.101. In the case of NCI-H23, the relative viability is reported as 0.142. Work on NCI-H322M yielded a relative viability of 0.4. With NCI-H460 the relative viability was 0.0166. Work on NCI-H520 yielded a relative viability of 0.143. NCI-H596 showed a relative viability of 0.207. Work on NCI-H647 yielded a relative viability of 0.0319. NCI-H650 gave a relative viability of 0.18. Cell Line NCI-H661 has a relative viability of 0.191. Work on NCI-H727 yielded a relative viability of 0.12. NCI-H838 gave a relative viability of 0.119. NCI-H1355 showed a relative viability of 0.168. NCI-H1437 gave a relative viability of 0.139. NCI-H1563 gave a relative viability of 0.506. NCI-H1650 showed a relative viability of 0.154. For NCI-H1651, the relative viability was 0.101. NCI-H1666 gave a relative viability of 0.193. NCI-H1734 was tested, and the relative viability was 0.203. In the case of NCI-H1755, the relative viability is reported as 0.279. Work on NCI-H1792 yielded a relative viability of 0.697. For NCI-H1915, the relative viability was 0.0673. NCI-H1975 gave a relative viability of 0.135. NCI-H1993 gave a relative viability of 0.493. With NCI-H2009 the relative viability was 0.0756. In the case of NCI-H2023, the relative viability is reported as 0.0574. In the case of NCI-H2085, the relative viability is reported as 0.252. For NCI-H2087, the relative viability was 0.116. NCI-H2126 gave a relative viability of 0.513. Cell Line NCI-H2228 has a relative viability of 0.161. With NCI-H2347 the relative viability was 0.51. NCI-H2405 showed a relative viability of 0.152. For NCI-H3122, the relative viability was 0.806.

What follows are cell lines tested with CC(C)C[C@H](NC(=O)[C@H](CCc1ccccc1)NC(=O)CN1CCOCC1)C(=O)N[C@@H](Cc1ccccc1)C(=O)N[C@@H](CC(C)C)C(=O)[C@@]1(C)CO1 [Carfilzomib] + CS(=O)(=O)N1CCN(Cc2cc3nc(-c4cccc5[nH]ncc45)nc(N4CCOCC4)c3s2)CC1 [Pictilisib] (partner 1 µM) in the same assay as above. Settings: first compound 0.001 µM.
Method in brief: as §1
For LU99A, the relative viability was 0.349. Cell Line LXF-289 has a relative viability of 0.753. Work on NCI-H23 yielded a relative viability of 0.469. Cell Line NCI-H322M has a relative viability of 0.491. Work on NCI-H460 yielded a relative viability of 0.438. With NCI-H520 the relative viability was 0.263.
